Results taken from ChEMBL document CHEMBL5390242, “Design, Synthesis, and Antitumor Efficacy of Substituted 2-Amino[1,2,4]triazolopyrimidines and Related Heterocycles as Dual Inhibitors for Microtubule Polymerization and Janus Kinase 2” (J Med Chem, 2023).
Activity calls are given as the source filed them. No cut-off for these calls is given here.

Tests used:
[1] = test system: MCF7; test: cells; details: Homo sapiens, MCF7, 48 h
Description: Antiproliferative activity against human MCF7 cells assessed as cell growth inhibition incubated for 48 hrs by MTT assay

[2] = Antiproliferative activity against Chinese hamster CHO-K1 cells assessed as cell growth inhibition incubated for 48 hrs by MTT assay; format: toxicity, cell-based, Cricetulus griseus
[3] = test system: HT-29; test: Antiproliferative activity against human HT-29 cells assessed as cell growth inhibition incubated for 48 hrs by MTT assay; format: functional, cell-based; details: HT-29, 48 h
[4] = test system: COLO 205; test: Cytotoxicity against human COLO 205 cells assessed as cell growth inhibition incubated for 48 hrs by MTT assay; format: functional, cell-based; details: COLO 205, 48 h
[5] = Antiproliferative activity against Chinese hamster CHO cells assessed as cell growth inhibition incubated for 48 hrs by MTT assay; format: toxicity, cell-based, Cricetulus griseus
[6] = test system: HepG2; test: Cytotoxicity against human HepG2 cells assessed as cell growth inhibition incubated for 48 hrs by MTT assay; format: functional, cell-based; details: HepG2, 48 h
[7] = Antiproliferative activity against human A549/DDP cells assessed as cell growth inhibition incubated for 48 hrs by MTT assay; format: functional, cell-based
[8] = molecular target: T1, Tyrosine-protein kinase JAK2 (Homo sapiens, UniProt O60674); test: Inhibition of JAK2 (unknown origin) using Poly-(Glu,Tyr 4:1) peptide as substrate in presence of ATP by ADP-Glo reagent based assay
T1 sequence (O60674 whole entry): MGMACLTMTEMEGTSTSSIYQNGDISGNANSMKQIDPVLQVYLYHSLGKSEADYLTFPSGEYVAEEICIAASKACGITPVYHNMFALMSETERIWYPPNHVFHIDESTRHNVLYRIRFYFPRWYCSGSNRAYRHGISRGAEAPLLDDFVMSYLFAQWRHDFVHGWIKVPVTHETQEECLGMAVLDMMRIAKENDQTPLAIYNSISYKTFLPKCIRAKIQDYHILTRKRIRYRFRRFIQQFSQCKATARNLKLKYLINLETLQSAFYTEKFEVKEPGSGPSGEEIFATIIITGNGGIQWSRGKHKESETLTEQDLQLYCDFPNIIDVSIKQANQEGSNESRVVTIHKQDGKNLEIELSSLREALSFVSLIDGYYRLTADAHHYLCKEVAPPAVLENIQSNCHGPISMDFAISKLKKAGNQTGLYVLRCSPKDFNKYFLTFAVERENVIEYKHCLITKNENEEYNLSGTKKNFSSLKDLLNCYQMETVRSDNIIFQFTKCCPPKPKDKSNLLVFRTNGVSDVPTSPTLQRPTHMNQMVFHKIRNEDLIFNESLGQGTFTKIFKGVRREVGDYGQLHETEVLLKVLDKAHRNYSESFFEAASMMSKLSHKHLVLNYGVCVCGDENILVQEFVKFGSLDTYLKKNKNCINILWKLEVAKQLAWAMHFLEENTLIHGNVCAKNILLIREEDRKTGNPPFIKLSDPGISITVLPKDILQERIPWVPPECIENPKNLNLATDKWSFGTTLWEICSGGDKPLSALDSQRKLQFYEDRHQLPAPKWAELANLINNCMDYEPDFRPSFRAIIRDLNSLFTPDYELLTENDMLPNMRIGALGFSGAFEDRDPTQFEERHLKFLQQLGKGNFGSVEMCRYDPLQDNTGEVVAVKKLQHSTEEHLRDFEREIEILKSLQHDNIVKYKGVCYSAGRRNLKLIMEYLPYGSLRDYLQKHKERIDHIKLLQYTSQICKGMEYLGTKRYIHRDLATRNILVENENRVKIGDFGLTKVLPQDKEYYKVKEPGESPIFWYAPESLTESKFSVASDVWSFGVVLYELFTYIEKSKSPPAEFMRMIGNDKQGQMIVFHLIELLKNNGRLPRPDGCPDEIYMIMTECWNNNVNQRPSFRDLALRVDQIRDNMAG

[9] = test system: CWR22R; test: Cytotoxicity against human 22Rv1 cells assessed as cell growth inhibition incubated for 48 hrs by MTT assay; format: functional, cell-based; details: 22Rv1, 48 h
[10] = Metabolic stability in mouse liver microsomes assessed as half life incubated for 10 mins in presence of NADPH by LC-MS/MS analysis; format: ADME, Microsome
[11] = test system: A2780; test: Antiproliferative activity against human A2780 cells assessed as cell growth inhibition incubated for 48 hrs by MTT assay; format: functional, cell-based; details: A2780, 48 h
[12] = test system: A2780/Taxol; test: Antiproliferative activity against human A2780T cells assessed as cell growth inhibition incubated for 48 hrs by MTT assay; format: functional, cell-based
[13] = Cytotoxicity against human ARPE-19 cells assessed as cell growth inhibition incubated for 48 hrs by MTT assay; format: toxicity, cell-based
[14] = test system: NCI/ADR-RES; test: cells; details: Homo sapiens, 48 h
Description: Antiproliferative activity against human MCF7ADR cells assessed as cell growth inhibition incubated for 48 hrs by MTT assay

[15] = test system: PC-3; test: Antiproliferative activity against human PC-3 cells assessed as cell growth inhibition incubated for 48 hrs by MTT assay; format: functional, cell-based; details: PC-3, 48 h
[16] = Cytotoxicity against human L02 cells assessed as cell growth inhibition incubated for 48 hrs by MTT assay; format: toxicity, cell-based
[17] = molecular target: Tyrosine-protein kinase JAK1 (Homo sapiens, UniProt P23458); test: Inhibition of JAK1 (unknown origin) using Poly-(Glu,Tyr 4:1) peptide as substrate in presence of ATP by ADP-Glo reagent based assay
Chain of Tyrosine-protein kinase JAK1 (P23458 whole entry): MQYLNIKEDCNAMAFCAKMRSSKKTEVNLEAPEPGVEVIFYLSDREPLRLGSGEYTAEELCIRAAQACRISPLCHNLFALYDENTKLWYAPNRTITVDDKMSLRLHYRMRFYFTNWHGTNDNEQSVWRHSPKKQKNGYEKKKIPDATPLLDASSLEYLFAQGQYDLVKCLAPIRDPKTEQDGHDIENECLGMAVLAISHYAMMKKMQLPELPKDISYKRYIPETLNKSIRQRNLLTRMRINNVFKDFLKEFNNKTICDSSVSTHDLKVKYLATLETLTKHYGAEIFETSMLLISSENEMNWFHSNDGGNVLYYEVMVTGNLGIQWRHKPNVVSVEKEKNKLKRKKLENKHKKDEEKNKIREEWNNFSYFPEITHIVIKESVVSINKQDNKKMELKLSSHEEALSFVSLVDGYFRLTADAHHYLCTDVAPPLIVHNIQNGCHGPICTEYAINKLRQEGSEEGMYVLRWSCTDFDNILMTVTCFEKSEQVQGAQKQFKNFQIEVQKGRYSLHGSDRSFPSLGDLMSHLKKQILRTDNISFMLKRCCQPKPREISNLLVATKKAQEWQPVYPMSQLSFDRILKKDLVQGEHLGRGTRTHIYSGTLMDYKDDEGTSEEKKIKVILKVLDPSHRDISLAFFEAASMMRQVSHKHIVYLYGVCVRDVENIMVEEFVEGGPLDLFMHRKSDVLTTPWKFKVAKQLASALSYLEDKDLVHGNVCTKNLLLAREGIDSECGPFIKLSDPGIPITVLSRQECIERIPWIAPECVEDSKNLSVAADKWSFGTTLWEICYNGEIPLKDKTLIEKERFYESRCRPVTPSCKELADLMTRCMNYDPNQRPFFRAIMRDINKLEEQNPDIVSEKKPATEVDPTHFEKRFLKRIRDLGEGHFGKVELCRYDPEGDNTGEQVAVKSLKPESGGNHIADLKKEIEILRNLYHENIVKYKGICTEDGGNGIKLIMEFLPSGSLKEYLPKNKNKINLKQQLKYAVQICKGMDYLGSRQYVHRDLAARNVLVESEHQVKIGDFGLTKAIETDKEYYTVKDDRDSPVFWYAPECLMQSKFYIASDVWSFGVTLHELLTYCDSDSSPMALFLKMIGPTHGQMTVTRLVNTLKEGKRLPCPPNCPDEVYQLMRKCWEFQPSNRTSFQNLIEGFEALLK

[18] = test system: A549; test: Induction of apoptosis in human A549 cells assessed as early apoptotic cells at 500 nM incubated for 24 hrs by Annexin V-FITC/PI staining based flow cytometry (reference value: 4.61 %); format: functional
[19] = Antiproliferative activity against human HCT-8/VCR cells assessed as cell growth inhibition incubated for 48 hrs by MTT assay; format: functional, cell-based
[20] = test system: A549; test: Antiproliferative activity against human A549 cells assessed as cell growth inhibition incubated for 48 hrs by MTT assay; format: functional, cell-based; details: A549, 48 h
[21] = test system: A549; test: Induction of mitochondrial membrane potential loss in human A549 cells by measuring green fluorescence at 500 nM incubated for 16 hrs by JC-1 staining based flow cytometry analysis (reference value: 0.7 %); format: functional
[22] = test system: A549; test: Induction of apoptosis in human A549 cells assessed as late apoptotic cells at 500 nM incubated for 24 hrs by Annexin V-FITC/PI staining based flow cytometry (reference value: 1.72 %); format: functional
[23] = test system: HCT-8; test: Antiproliferative activity against human HCT-8 cells assessed as cell growth inhibition incubated for 48 hrs by MTT assay; format: functional, cell-based; details: HCT-8, 48 h
[24] = molecular target: T1, Tyrosine-protein kinase JAK2; test: Inhibition of JAK2 (unknown origin) using Poly-(Glu,Tyr 4:1) peptide as substrate at 1 uM in presence of ATP by ADP-Glo reagent based assay relative to control
[25] = test system: A549; test: Induction of mitochondrial membrane potential loss in human A549 cells by measuring red fluorescence at 500 nM incubated for 16 hrs by JC-1 staining based flow cytometry analysis (reference value: 99.3 %); format: functional
[26] = test system: KP-4; test: Antiproliferative activity against human KP-4 cells assessed as cell growth inhibition incubated for 48 hrs by MTT assay; format: functional, cell-based; details: KP-4, 48 h
[27] = test system: BXPC-3; test: Antiproliferative activity against human BXPC-3 cells assessed as cell growth inhibition incubated for 48 hrs by MTT assay; format: functional, cell-based; details: BXPC-3, 48 h
[28] = test system: HeLa; test: Antiproliferative activity against human HeLa cells assessed as cell growth inhibition incubated for 48 hrs by MTT assay; format: functional, cell-based
[29] = Cytotoxicity against human HaCaT cells assessed as cell growth inhibition incubated for 48 hrs by MTT assay; format: toxicity, cell-based
[30] = test system: A549; test: Induction of apoptosis in human A549 cells assessed as necrotic cells at 500 nM incubated for 24 hrs by Annexin V-FITC/PI staining based flow cytometry (reference value: 0.67 %); format: functional
[31] = test system: A549; test: Induction of apoptosis in human A549 cells assessed as viable cells at 500 nM incubated for 24 hrs by Annexin V-FITC/PI staining based flow cytometry (reference value: 93 %); format: functional; details: read-out: Activity
[32] = Half life in CD-1 mouse at 13 mg/kg,ip measured upto 24 hrs by HPLC-MS/MS analysis; format: ADME, organism-based; details: in vivo
[33] = Toxicity in Balb/c mouse xenografted with human A549 cells assessed as change in body weight at 50 mg/kg,ip administration measured after 31 days; format: organism-based; details: in vivo, 744 h, time 31 day
[34] = Acute toxicity in C57BL/6 mouse assessed as maximum tolerated dose administered intravenously for 5 consecutive days; details: in vivo, route iv
[35] = MRT (0 to t) in CD-1 mouse at 13 mg/kg,ip measured upto 24 hrs by HPLC-MS/MS analysis; format: ADME, organism-based; details: in vivo
[36] = AUC (0 to infinity) in CD-1 mouse at 13 mg/kg,ip measured upto 24 hrs by HPLC-MS/MS analysis; format: ADME, organism-based; set-up: time < 24 hrs, dose 13 mg/kg, route ip; details: in vivo
[37] = Cmax in CD-1 mouse at 13 mg/kg,ip measured upto 24 hrs by HPLC-MS/MS analysis; format: ADME, organism-based; set-up: time < 24 hrs, dose 13 mg/kg, route ip; details: in vivo
[38] = AUC (0 to t) in CD-1 mouse at 13 mg/kg,ip measured upto 24 hrs by HPLC-MS/MS analysis; format: ADME, organism-based; set-up: time < 24 hrs, dose 13 mg/kg, route ip; details: in vivo
[39] = MRT (0 to infinity) in CD-1 mouse at 13 mg/kg,ip measured upto 24 hrs by HPLC-MS/MS analysis; format: ADME, organism-based; details: in vivo
[40] = test system: A549; test: Antitumor activity against human A549 cells xenografted in Balb/c mouse assessed as increase in tumor necrotic cells at 50 mg/kg,ip administration measured after 31 days by Hematoxylin-eosin staining based microscopy; format: functional, organism-based; details: time 31.0 day
[41] = Tmax in CD-1 mouse at 13 mg/kg,ip measured upto 24 hrs by HPLC-MS/MS analysis; format: ADME, organism-based; details: in vivo
[42] = test system: A549; test: Antitumor activity against human A549 cells xenografted in Balb/c mouse assessed as tumor size at 50 mg/kg,ip administration measured after 31 days; format: functional; details: time 31 day
[43] = test system: A549; test: Antitumor activity against human A549 cells xenografted in Balb/c mouse assessed as reduction in tumor weight at 50 mg/kg,ip administration measured after 31 days; format: functional; set-up: scale not given: the % may be the effect or the level left; details: time 31 day
[44] = test system: A549; test: Induction of mitochondrial membrane potential loss in human A549 cells by measuring red fluorescence at 50 nM incubated for 16 hrs by JC-1 staining based flow cytometry analysis (reference value: 99.3 %); format: functional
[45] = test system: A549; test: Induction of apoptosis in human A549 cells assessed as viable cells at 50 nM incubated for 24 hrs by Annexin V-FITC/PI staining based flow cytometry (reference value: 93 %); format: functional; details: read-out: Activity
[46] = test system: A549; test: Induction of mitochondrial membrane potential loss in human A549 cells by measuring green fluorescence at 50 nM incubated for 16 hrs by JC-1 staining based flow cytometry analysis (reference value: 0.7 %); format: functional
[47] = test system: A549; test: Induction of apoptosis in human A549 cells assessed as late apoptotic cells at 50 nM incubated for 24 hrs by Annexin V-FITC/PI staining based flow cytometry (reference value: 1.72 %); format: functional
[48] = test system: A549; test: Induction of apoptosis in human A549 cells assessed as necrotic cells at 50 nM incubated for 24 hrs by Annexin V-FITC/PI staining based flow cytometry (reference value: 0.67 %); format: functional
[49] = test system: A549; test: Induction of apoptosis in human A549 cells assessed as early apoptotic cells at 50 nM incubated for 24 hrs by Annexin V-FITC/PI staining based flow cytometry (reference value: 4.61 %); format: functional

Structure (SMILES)	IC50 [1] [nM]	IC50 at 48 h [2] [nM]	IC50 [3] [nM]	IC50 [4] [nM]	IC50 at 48 h [5] [nM]	IC50 [6] [nM]	IC50 [9] [nM]	IC50 at 48 h [13] [nM]	IC50 [15] [nM]	IC50 at 48 h [16] [nM]	IC50 [20] [nM]	inhibition [24] [%]	IC50 [26] [nM]	IC50 [27] [nM]	IC50 [28] [nM]	IC50 at 48 h [29] [nM]	also measured
CN1CCN(c2cccc(Nc3nc4c(-c5ccc(S(C)(=O)=O)cc5)cccn4n3)c2)CC1	1230	216	961	1550	172	2040	5790	4930	15100	388	358	99	372	730	1260	2830	IC50 [7]: 1530 nM; IC50 [8]: 6 nM; half-life [10]: 0.218 h; IC50 [11]: 289 nM; IC50 [12]: 394 nM; IC50 [14]: 3530 nM; IC50 [17]: 12 nM; Activity [18]: 14.9%; IC50 [19]: 5780 nM; Activity [21]: 3.5%; Activity [22]: 16.6%; IC50 [23]: 1140 nM; Activity [25]: 96.5%; Activity [30]: 2.8%; viability at 0.5 µM [31]: 65.7%
COc1cc(-c2nccc3nc(Nc4cccc5c4ccn5P(=O)([O-])[O-])nn23)cc(OC)c1OC.[Na+].[Na+]	48	–	–	–	–	–	–	–	–	–	12	–	42	9	11	–	half-life [32]: 1.8 h; Activity [33]: Non-Toxic; MTD at 5 days [34]: 100 mg/kg; MRT last at 24 h [35]: 1.8 h; AUC(0-inf) [36]: 908 ng·h/mL; Cmax [37]: 334 ng/mL; AUC(0-t) at 24 h [38]: 850 ng·h/mL; MRT inf [39]: 2.4 h; Activity [40]: Active; Tmax [41]: 6 min; Activity [42]: 204.6 mm3; Activity [43]: 91%
COc1cc2c(c(OC)c1OC)-c1ccc(OC)c(=O)cc1[C@@H](NC(C)=O)CC2 [COLCHICINE]	46	9200	31	12.8	697	75	18	21.8	79	269	64	5.7	–	41	–	9.3	Activity [44]: 93.9%; viability at 0.05 µM [45]: 57%; Activity [46]: 0.1%; Activity [47]: 24.1%; Activity [48]: 3.6%; Activity [49]: 15.3%
